Patent US20250221936A1, “ENGINEERED HEMICHANNELS, ENGINEERED VESICLES, AND USES THEREOF” (VIRGINIA TECH INTELLECTUAL PROPERTIES, INC., priority 2018, published 2025)
Entries after “also recorded” stand apart in the source; their conditions may differ.

How the values were obtained:
Cx43 Y313-A348 peptide = molecular target: T1, Cx43 Y313-A348 peptide (Rattus norvegicus, UniProt P08050); test: SPR of captured aCT1 with Cx43 Y313-A348 peptide; format: binding; details: unlinked Cx43 Y313-A348 peptide (25 µM)
T1 construct: made in house; host or cells: chemical synthesis
T1 sequence (P08050 with tags, fused parts or gaps): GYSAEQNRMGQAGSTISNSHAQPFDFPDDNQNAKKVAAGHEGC
Description: FIGS. 28A-28D. […] (FIG. 28B) Schematic representation of the Cx43 Y313-A348 peptide synthesized for a binding surface surrogate 1 with linkable cysteine (Cys) on the amino terminus and CT. (FIG. 28C) Single letter amino acid sequence of Cx43 Y313-A348 peptide with predicted helix secondary structure underlined. (FIG. 28D) Surface Plasmon Resonance (SPR) analysis of substrate captured aCT1 (700-1000 RUs) binding recombinant Cx43 CT (100 µM, light grey), unlinked Cx43 Y313-A348 peptide (25 µM, black), and disulfide linked Cx43 Y313-A348 (25 µM, dark grey). […] Disulfide cross-linking Cx43 Y313-A348 into a looped conformation results in a loss of aCT1 binding, thus aCT1 interaction with this peptide requires a degree conformational flexibility. Cx43 Y313-A348 peptide can provide an assay for screening for novel Cx43 interacting drugs.
A […] peptide mimetic encompassing amino acids Y313 through A348 of the Cx43 CT was synthesized, containing the H1 and H2 a-helical regions (FIGS. 28A-28D). […] Cx43 Y313-A348 was designed to have cysteines at its NT and CT, which were used to disulfide cross-link the peptide into a cyclized conformation (FIG. 28B). […]

[1] = system: choroidal neovascularization; details: mouse, in vivo; cited from earlier work
cerebral lesion = details: 100 μM in 2% collagen within HFM; cited from earlier work
[2] = system: Human umbilical vein endothelial cells (HUVECs); details: cited from earlier work
[3] = system: U87 MG glioblastoma cells; details: cited from earlier work
implants = test: Inflammatory infiltrate at implants, myeloperoxidase stain; format: in vivo; details: 24 hour time point
Description: In attempting to quantify the neutrophil infiltrate using a myeloperoxidase stain, the inventors observed that some of the cells stained darker than others. Upon further investigation, these cells were not neutrophils as but rather were macrophages.

[4] = system: chronic, slow healing skin wounds; details: diabetic foot ulcers and venous leg ulcers; cited from earlier work
cancer stem cells CSCs [5] = test: Cancer stem cell survival; format: cell-based
Description: In another example, JM peptides can selectively target cancer stem cells CSCs. JM2 specific interaction with microtubules concomitantly with a loss of Cx43/microtubule complexing and a decrease in cell-cell communication in CSCs derived from patient tumors was confirmed. […] Current research includes the development of JM2-loaded biodegradable nanoparticles for JM2 sustained delivery in preparation for future clinical trials. In sum, the Cx43 mimetic peptide JM2 represents a novel and potent therapeutic opportunity to target chemoresistant CSCs in cancer treatment. This was described in (Lamouille et al., targeting glioblastoma cancer stem cells with a novel Connexin43 mimetic peptide [abstract]. In: Proceedings of the American Association for Cancer Research Annual Meeting 2017; 2017 Apr. 1-5; Washington, DC. Philadelphia (PA): AACR; Cancer Res 2017;77 (13 Suppl): Abstract nr 4765. doi: 10.1158/1538-7445.AM2017-4765), which is incorporated by reference. Further results can indicate that cancer stem cells derived from other cancers respond similarly to JM peptides. […]

Cx43-Hela cells = details: cited from earlier work
silicon wafer implants = details: 24 hours; cited from earlier work
cancer stem cells CSCs [6] = details: CSCs derived from patient tumors; cited from earlier work
Cx43 hemichannel = molecular target: T2, Cx43 hemichannel (Homo sapiens, UniProt P17302); details: 50 μM for 2 hrs; cited from earlier work
T2 construct: expressed in transfected cells; host or cells: HeLa (Cx43-HeLa)
T2 sequence (P17302 2-382 limits assumed): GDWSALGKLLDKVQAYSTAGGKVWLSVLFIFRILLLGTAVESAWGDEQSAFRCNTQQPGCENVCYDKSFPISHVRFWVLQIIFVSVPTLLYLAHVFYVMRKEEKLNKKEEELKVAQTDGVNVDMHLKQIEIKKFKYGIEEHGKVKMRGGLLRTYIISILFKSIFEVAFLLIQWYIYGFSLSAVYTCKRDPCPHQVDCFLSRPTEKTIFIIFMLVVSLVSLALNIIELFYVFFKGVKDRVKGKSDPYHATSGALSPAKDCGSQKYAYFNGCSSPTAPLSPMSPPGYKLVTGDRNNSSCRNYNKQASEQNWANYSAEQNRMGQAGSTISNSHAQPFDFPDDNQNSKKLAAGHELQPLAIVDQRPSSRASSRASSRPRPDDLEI

Row | Sequence | SPR interaction (Cx43 Y313-A348 peptide) | CNV injury spread and retinal function (ERG) [1] | density of GFAP-positive astrocytes (cerebral lesion) | protection from oxidative stress ([2]; H2O2) | cellular injury ([2]; UW solution containing 100 μM) | IL-8 secretion and MHC II expression ([2]; UW solution supplemented with peptide) | TEER and IL-8 secretion post reperfusion ([2]; UW+ACT1 solution) | aggregation [3] | type of inflammatory infiltrate (implants) | healing of skin wounds [4] | viability and self-renewal of colon cancer stem cells (cancer stem cells CSCs [5]) | Cx43 GJ labeling (Cx43-Hela cells; 10 μM for 2, 6, and 24 hrs) | microtubule organization (Cx43-Hela cells; 2 hr) | tissue reaction zone (silicon wafer implants) | CSC survival (cancer stem cells CSCs [6]) | hemichannel activity (Cx43 hemichannel)
1 | RQPKIWFPNRRKPWKKRPRPDDLEI [alpha CT1] | levels of interaction with aCT1 comparable to the full Cx43 CT sequence | reduced CNV injury spread and improved retinal function | much lower density of GFAP-positive astrocytes | significantly protects endothelial cells from H2O2 | significantly reduced cellular injury as compared to untreated controls | significant reduction in IL-8 secretion and MHC Class II expression | improved TEER and reduced IL-8 secretion | higher degree of aggregation | the primary inflammatory infiltrate was macrophages | high level of efficacy in promoting the healing of two types of chronic, slow healing skin wounds; also recorded: increased the healing rate of slow-healing skin wounds |  |  |  |  |  | 
2 | VFFKGVKDRVKGRSD [JM2] |  |  |  |  |  |  |  |  |  |  | effectively reduced the viability and self-renewal of cancer stem cells from patients with colon cancer | displayed little GJ labeling; also recorded: GJ labeling began to return at 6 hrs, and appeared normal after 24 hrs | disruption of microtubule organization | substantially narrower tissue reaction zone | decreases CSC survival in vitro and in vivo | significantly reduced hemichannel activity
